Experimental data reported in PubChem BioAssay (NCI).
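Assay format: 96-well plates, 48-hour exposure. Here, GI50 denotes the concentration required for 50% inhibition of growth. Definition used: TGI = concentration required for complete inhibition of growth.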

How the values were obtained:
Assay in all cases: NCI-60 cell line screen, 48 h
[1] = system: U251 CNS
[2] = system: NCI/ADR-RES ovarian
[3] = system: SK-MEL-28 melanoma
[4] = system: OVCAR-4 ovarian
[5] = system: T-47D breast
[6] = system: HCT-116 colon
[7] = system: RPMI-8226 leukemia
[8] = system: ACHN renal
[9] = system: SK-MEL-5 melanoma
[10] = system: SK-OV-3 ovarian
[11] = system: KM12 colon
[12] = system: SNB-19 CNS
[13] = system: TK-10 renal
[14] = system: MALME-3M melanoma
[15] = system: BT-549 breast
[16] = system: COLO 205 colon
[17] = system: SK-MEL-2 melanoma
[18] = system: HCT-15 colon
[19] = system: LOX IMVI melanoma
[20] = system: NCI-H23 lung
[21] = system: OVCAR-3 ovarian
[22] = system: HL-60(TB) leukemia
[23] = system: MCF7 breast
[24] = system: HOP-92 NSCLC
[25] = system: SW-620 colon
[26] = system: SR leukemia
[27] = system: MDA-MB-231 breast
[28] = system: UACC-62 melanoma
[29] = system: OVCAR-8 ovarian

`Clc1ccc2c(NCCNC34CC5CC(CC(C5)C3)C4)ccnc2c1` showed a GI50 [1] of 1.32 µM, a TGI [1] of 4.78 µM and a GI50 [2] of 3.21 µM. It also gave a TGI [2] of 6.42 µM, a GI50 [3] of 3.15 µM and a TGI [3] of 6.2 µM. The GI50 [4] was 2.95 µM, the TGI [4] was 7.8 µM and the GI50 [5] was 3.33 µM. For the same compound, the TGI [5] was 7.75 µM, the GI50 [6] was 1.43 µM and the TGI [6] was 4.91 µM. For the same compound, the GI50 [7] was 1.22 µM, the TGI [7] was 9.55 µM and the GI50 [8] was 2.88 µM. The TGI [8] was 5.83 µM, the GI50 [9] was 3.12 µM and the TGI [9] was 6.12 µM. It also gave a GI50 [10] of 4.32 µM, a TGI [10] of 8.21 µM and a GI50 [11] of 2.87 µM. It also gave a TGI [11] of 5.82 µM, a GI50 [12] of 3.8 µM and a TGI [12] of 7.19 µM. For the same compound, the GI50 [13] was 3.71 µM, the TGI [13] was 7.28 µM and the GI50 [14] was 1.25 µM. For the same compound, the TGI [14] was 4.24 µM, the GI50 [15] was 2.67 µM and the TGI [15] was 6.03 µM. For the same compound, the GI50 [16] was 0.416 µM, the TGI [16] was 1 µM and the GI50 [17] was 3.37 µM. The TGI [17] was 6.62 µM, the GI50 [18] was 0.763 µM and the TGI [18] was 3.28 µM. For the same compound, the GI50 [19] was 1.06 µM, the TGI [19] was 4.07 µM and the GI50 [20] was 3.41 µM. For the same compound, the TGI [20] was 6.82 µM, the GI50 [21] was 3.11 µM and the TGI [21] was 6.1 µM. For the same compound, the GI50 [22] was 3.69 µM, the TGI [22] was 8.73 µM and the GI50 [23] was 0.868 µM. The TGI [23] was 3.47 µM, the GI50 [24] was 0.484 µM and the TGI [24] was 3.17 µM. For the same compound, the GI50 [25] was 2.83 µM, the TGI [25] was 6 µM and the GI50 [26] was 0.622 µM. It also gave a TGI [26] of 2.31 µM, a GI50 [27] of 2.38 µM and a TGI [27] of 5.19 µM. The GI50 [28] was 3.03 µM, the TGI [28] was 6.05 µM and the GI50 [29] was 2.9 µM. The TGI [29] was 6.16 µM.
